Experimental data taken from patent US20250099467A1, “COMBINATION THERAPY FOR TREATING ABNORMAL CELL GROWTH” (Verastem, Inc., priority 2022, published 2025).

Key:
Format in all cases: cell-based, human
[1] = tested on: CRC KRAS mutant cell lines; assay: 3D proliferation assay with synergy analysis, CRC panel; conditions: VS-6766 combined with ZN-C3 (WEE1); panel of 9 CRC KRAS mt cell lines; 3D Matrigel, 7 days, CellTiter-Glo; FIG. 1, 2
Experimental: (§1) As examples, human cancer cell lines including non-small cell lung cancer (NSCLC), colorectal cancer (CRC), ovarian cancer and endometrial cancer were grown in 3D conditions. Briefly, 96-well plates were coated with 50 μL of Matrigel (100%) and incubated at 37° C. and 5% CO2 for 30 min in order for the Matrigel to solidify. Cells were seeded in 100 μL of 2% Matrigel containing medium. After an overnight incubation (17-22 hours), cells were treated with VS-6766 (RAF/MEK clamp)+/−DDR pathway inhibitor (e.g., DDR pathway inhibitor that targets WEE1, e.g., ZN-C3) for 7 days. VS-6766 was used at 1:5 dilutions starting at 5 μM and ZN-C3 was used at 1:3 dilutions starting at 5 μM. Cell viability was measured using the cell viability CellTiter-Glo assay.
(§2) Raw data and metadata files were processed with a custom R-script for single agent and combination activity. Bliss, Loewe, Highest Single Agent (HSA) and ZIP synergy analysis were performed to generate a composite synergy score. Summary graphics and reports were saved for visualization and further analysis.

[2] = tested on: endometrial cancer cell lines; assay: 3D proliferation assay with synergy analysis, endometrial panel; conditions: VS-6766 combined with ZN-C3 (WEE1); panel of 6 endometrial cancer cell lines; 3D Matrigel, 7 days, CellTiter-Glo; FIG. 3, 4
Experimental: as §1, §2

[3] = tested on: ovarian cancer cell lines; assay: 3D proliferation assay with synergy analysis, ovarian panel; conditions: VS-6766 combined with ZN-C3 (WEE1); panel of 12 ovarian cancer cell lines; 3D Matrigel, 7 days, CellTiter-Glo; FIG. 3, 4
Experimental: as §1, §2

[4] = tested on: NSCLC KRAS mutant cell lines; assay: 3D proliferation assay with synergy analysis, NSCLC panel; conditions: VS-6766 combined with ZN-C3 (WEE1); panel of 9 NSCLC KRAS mutant cell lines; 3D Matrigel, 7 days, CellTiter-Glo; FIG. 1, 2
Experimental: as §1, §2

Measured: synergy with ZN-C3 in reducing cell viability (composite of Bliss, Loewe, HSA and ZIP)

CNS(=O)(=O)Nc1nccc(Cc2c(C)c3ccc(Oc4ncccn4)cc3oc2=O)c1F [VS-6766]
synergistic: all assays above
